Measurements reported in patent US10301288B2, “Kinase inhibitors” (Topivert Pharma Limited, priority 2013, dated 2019).

How the values were obtained:
[1] = tested on: PBMCs; test: (i) Cell mitosis assay in PBMCs; type: cell-based; settings: Homo sapiens, PBMC, 5 μg/mL
Procedure: PBMCs from healthy subjects are separated from whole blood (Quintiles, London, UK) using a density gradient (Histopaque®-1077, Sigma-Aldrich, Poole, UK). The PBMCs (3 million cells per sample) are subsequently treated with 2% PHA (Sigma-Aldrich, Poole, UK) for 48 hr, followed by a 20 hr exposure to varying concentrations of test compounds. At 2 hr before collection, PBMCs are treated with demecolcine (0.1 μg/mL; Invitrogen, Paisley, UK) to arrest cells in metaphase. […] Fluorescence is observed using an ATTUNE flow cytometer (Invitrogen, Paisley, UK), gating for lymphocytes.

[2] = biological target: GSK3α (Homo sapiens (Human), UniProt P49840); test: GSK 3α enzyme inhibition (FRET, Method 2); type: biochemical
Procedure: (§1) The enzyme inhibitory activities of compounds disclosed herein are determined by FRET using synthetic peptides labelled with both donor and acceptor fluorophores (Z-LYTE, Invitrogen Ltd., Paisley, UK).
The inhibitory activities of compounds of the invention against the GSK 3α enzyme isoform (Invitrogen), are evaluated by determining the level of activation/phosphorylation of the target peptide. The GSK3-α protein (500 ng/mL, 2.5 μL) is mixed with the test compound (2.5 μL at either 4 μg/mL, 0.4 μg/mL, 0.04 μg/mL, or 0.004 μg/mL) for 2 hr at RT. The FRET peptide (8 μM, 2.5 μL), which is a phosphorylation target for GSK3α, and ATP (40 μM, 2.5 μL) are then added to the enzyme/compound mixture and the resulting mixture incubated for 1 hr. Development reagent (protease, 5 μL) is added for 1 hr prior to detection in a fluorescence microplate reader (Varioskan® Flash, ThermoFisher Scientific).
(§2) In all cases, the site-specific protease cleaves non-phosphorylated peptide only and eliminates the FRET signal. Phosphorylation levels of each reaction are calculated using the ratio of coumarin emission (donor) over fluorescein emission (acceptor), for which high ratios indicate high phosphorylation and low ratios indicate low phosphorylation levels.

[3] = tested on: β-catenin; test: (m) Accumulation of β catenin in d-U937 cells; type: cell-based, human; settings: Reference Compound at 1 μg/mL defined as 100%
Procedure: U937 cells, a human monocytic cell line, are differentiated into macrophage-type cells by incubation with PMA; (100 ng/mL) for between 48 to 72 hr. The cells are then incubated with either final concentrations of test compound or vehicle for 18 hr. The induction of β-catenin by the test compounds is stopped by replacing the media with 4% formaldehyde solution. Endogenous peroxide activity is neutralised by incubating with quenching buffer (100 μL, 0.1% sodium azide, 1% H2O2 in PBS with 0.05% Tween-20) for 20 min. The cells are washed with washing buffer (200 μL; PBS containing 0.05% Tween-20) and incubated with blocking solution (200 μL; 5% milk in PBS) for 1 hr, re-washed with washing buffer (200 μL) and then incubated overnight with anti-β-catenin antibody solution (50 μL) in 1% BSA/PBS (BD, Oxford, UK).
After washing with washing buffer (3×200 μL; PBS containing 0.05% Tween-20), cells are incubated with an HRP-conjugated secondary antibody solution (100 μL) in 1% BSA/PBS (Dako, Cambridge, UK) and the resultant signal is determined colourimetrically (OD: 450 nm with a reference wavelength of 655 nm) using TMB substrate (50 μL; R&D Systems, Abingdon, UK). This reaction is stopped by addition of 1N H2SO4 solution (50 μL). Cells are then washed with washing buffer and 2% crystal violet solution (50 μL) is applied for 30 min. After washing with washing buffer (3×200 μL), 1% SDS (100 μL) is added to each well and the plates are shaken lightly for 1 hr prior to measuring the absorbance at 595 nm (Varioskan® Flash, Thermo-Fisher Scientific).
The measured OD450-655 readings are corrected for cell number by dividing the OD450-655 by the OD595 readings.

[4] = tested on: PBMCs; test: (b) LPS-induced TNFα/IL-8 release in PBMC cells; type: cell-based; settings: Homo sapiens, read-out: IC50 for Inhibition of Cytokine Release, IL-8
Procedure: Peripheral blood mononuclear cells (PBMCs) from healthy subjects are separated from whole blood using a density gradient (Lymphoprep, Axis-Shield Healthcare). The PBMCs are seeded in 96 well plates and treated with compounds at the desired concentration for 2 hours before addition of 1 ng/ml LPS (Escherichia Coli 0111:B4 from Sigma Aldrich) for 24 hours under normal tissue culture conditions (37° C., 5% CO2). The supernatant is harvested for determination of IL-8 and TNFα concentrations by sandwich ELISA (Duo-set, R&D systems) and read on the fluorescence microplate reader (Varioskan® Flash, ThermoFisher Scientific).

[5] = biological target: p38 MAPKα (Homo sapiens (Human), UniProt Q16539); test: p38 MAPKα enzyme inhibition (FRET, Method 2); type: biochemical
Procedure: as §1
The inhibitory activities of test compounds against the p38 MAPKα isoform (MAPK14: Invitrogen), are evaluated indirectly by determining the level of activation/phosphorylation of the down-stream molecule, MAPKAP-K2. The p38 MAPKα protein (80 ng/mL, 2.5 μL) is mixed with the test compound (2.5 μL of either 4 μg/mL, 0.4 μg/mL, 0.04 μg/mL or 0.004 μg/mL) for 2 hr at RT. […] The mixture is incubated for 1 hr at RT. Development reagent (protease, 5 μL) is added for 1 hr prior to detection in a fluorescence microplate reader (Varioskan® Flash, ThermoFisher Scientific).
as §2

[6] = biological target: c-Src (Homo sapiens (Human), UniProt P12931); test: c-Src enzyme inhibition (FRET); type: biochemical
Procedure: as §1
(§3) The inhibitory activities of compounds of the invention against c-Src and Syk enzymes (Invitrogen), are evaluated in a similar fashion to that described hereinabove. The relevant enzyme (3000 ng/mL or 2000 ng/mL respectively, 2.5 μL) is incubated with the test compound (either 4 μg/mL, 0.4 μg/mL, 0.04 μg/mL, or 0.004 μg/mL, 2.5 μL each) for 2 hr at RT. The FRET peptides (8 μM. 2.5 μL), and appropriate ATP solutions (2.5 μL, 800 μM for c-Src, and 60 μM ATP for Syk) are then added to the enzymes/compound mixtures and incubated for 1 hr. Development reagent (protease, 5 μL) is added for 1 hr prior to detection in a fluorescence microplate reader (Varioskan® Flash, ThermoFisher Scientific).
as §2

[7] = biological target: Syk (Homo sapiens (Human), UniProt P43405); test: Syk enzyme inhibition (FRET); type: biochemical
Procedure: as §1, §3, §2

[8] = tested on: PBMCs; test: (c) IL-2 and IFN gamma release in CD3/CD28 stimulated PBMC cells; type: cell-based; settings: Homo sapiens
Procedure: PBMCs from healthy subjects are separated from whole blood using a density gradient (Lymphoprep, Axis-Shield Healthcare). Cells are added to a 96 well plate pre-coated with a mixture of CD3/CD28 monoclonal antibodies (0.3 ug/ml eBioscience and 3 ug/ml BD Pharmingen respectively). Compound at the desired concentration is then added to the wells and the plate left for 3 days under normal tissue culture conditions. […] The IC50 is determined from the dose response curve.

[9] = tested on: HT29 cells; test: (d) IL-1β-induced IL-8 release in HT29 cells; type: cell-based; settings: Homo sapiens, HT-29, read-out: IC50 for Inhibition of Cytokine Release, IL-8
Procedure: HT29 cells, a human colon adenocarcinoma cell line, are plated in a 96 well plate (24 hrs) and pre-treated with compounds at the desired concentration for 2 hours before addition of 5 ng/ml of IL-1β (Abeam) for 24 hours. Supernatants are harvested for IL-8 quantification by Sandwich ELISA (Duo-set, R&D System). The IC50 is determined from the dose response curve.

[10] = read-out: IC50 for Inhibition of Cytokine Release, IFNγ
[11] = read-out: IC50 for Inhibition of Cytokine Release, IL-2

c-Src, sequence (P12931 whole entry, looked up): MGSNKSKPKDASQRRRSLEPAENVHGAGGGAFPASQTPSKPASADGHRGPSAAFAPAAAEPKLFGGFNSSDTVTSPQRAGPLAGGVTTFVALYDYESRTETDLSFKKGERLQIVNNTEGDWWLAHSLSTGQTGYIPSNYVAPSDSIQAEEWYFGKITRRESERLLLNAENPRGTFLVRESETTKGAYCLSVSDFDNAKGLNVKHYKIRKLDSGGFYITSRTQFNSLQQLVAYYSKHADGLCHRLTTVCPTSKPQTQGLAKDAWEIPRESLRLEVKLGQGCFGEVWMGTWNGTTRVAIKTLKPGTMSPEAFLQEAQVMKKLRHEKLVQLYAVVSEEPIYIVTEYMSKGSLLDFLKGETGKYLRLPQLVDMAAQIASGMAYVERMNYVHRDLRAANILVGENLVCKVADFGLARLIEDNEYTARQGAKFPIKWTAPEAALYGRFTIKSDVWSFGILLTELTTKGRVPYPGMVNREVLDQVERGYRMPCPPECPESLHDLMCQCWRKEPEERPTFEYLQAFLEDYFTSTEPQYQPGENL
p38 MAPKα, sequence (Q16539 whole entry): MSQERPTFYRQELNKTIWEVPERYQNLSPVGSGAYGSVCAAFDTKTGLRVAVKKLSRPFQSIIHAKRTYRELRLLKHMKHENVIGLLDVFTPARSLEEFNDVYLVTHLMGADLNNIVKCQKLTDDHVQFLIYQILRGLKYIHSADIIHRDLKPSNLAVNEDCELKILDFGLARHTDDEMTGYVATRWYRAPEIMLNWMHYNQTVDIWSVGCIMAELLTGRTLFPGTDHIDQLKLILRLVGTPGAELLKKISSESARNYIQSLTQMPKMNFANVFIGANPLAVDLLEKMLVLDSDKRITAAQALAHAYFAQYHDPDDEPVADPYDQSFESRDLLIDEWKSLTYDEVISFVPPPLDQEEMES
GSK3α, sequence (P49840 whole entry): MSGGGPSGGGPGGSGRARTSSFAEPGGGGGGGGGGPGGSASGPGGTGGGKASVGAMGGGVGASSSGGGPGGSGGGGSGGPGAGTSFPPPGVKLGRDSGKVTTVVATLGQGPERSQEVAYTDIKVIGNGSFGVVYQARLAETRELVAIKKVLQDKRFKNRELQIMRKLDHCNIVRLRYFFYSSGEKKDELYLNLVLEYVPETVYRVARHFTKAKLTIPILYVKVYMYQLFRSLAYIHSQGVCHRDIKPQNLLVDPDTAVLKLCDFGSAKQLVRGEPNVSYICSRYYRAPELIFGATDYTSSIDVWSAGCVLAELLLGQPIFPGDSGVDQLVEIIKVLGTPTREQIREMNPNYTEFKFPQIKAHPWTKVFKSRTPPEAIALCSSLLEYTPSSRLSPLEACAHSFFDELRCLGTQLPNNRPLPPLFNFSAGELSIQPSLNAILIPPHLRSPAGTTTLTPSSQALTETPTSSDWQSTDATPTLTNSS

| SMILES | inhibition at 5 µg/mL [1] | IC50 [2] | % β-catenin induction ([3]; 1 μg/mL) | % β-catenin induction ([3]; 5 μg/mL) | % β-catenin induction ([3]; 10 μg/mL) | IC50 [4] | IC50 [5] | IC50 [6] | IC50 [7] | IC50 [8, 10] | IC50 [8, 11] | IC50 [9] |
| --- | --- | --- | --- | --- | --- | --- | --- | --- | --- | --- | --- | --- |
| C#Cc1cc(Nc2nccc(Oc3ccc(NC(=O)Nc4cc(C(C)C)nn4-c4ccc(C)cc4)c4ccccc34)n2)cc(C(=O)NCCOCCOCCOC)c1 [Example 1, 3-Ethynyl-5-((4-((4-(3-(3-isopropyl-1-(p-tolyl)-1H-pyrazol-5-yl)ureido)-naphthalen-1-yl)oxy)pyrimidin-2-yl)amino)-N-(2-(2-(2-methoxyethoxy)ethoxy)ethyl)-benzamide] | 3.6% | 12800 nM | −14% | −13% | −17% | 1.6 nM | 25 nM | 30 nM | 370 nM |  |  |  |
| C#Cc1cc(Nc2nccc(Oc3ccc(NC(=O)Nc4cc(C(C)(C)C)nn4-c4ccc(OC)cc4)c4ccccc34)n2)cc(C(=O)NCCOCCOCCOC)c1 [Example 3, 3-((4-((4-(3-(3-(tert-Butyl)-1-(4-methoxyphenyl)-1H-pyrazol-5-yl)ureido)-naphthalen-1-yl)oxy)pyrimidin-2-yl)amino)-5-ethynyl-N-(2-(2-(2-methoxyethoxy)-ethoxy)ethyl)benzamide] | 2.1% | 12200 nM | 1% | 6% | 6% | 1.2 nM | 39 nM | 14 nM | 30 nM | 2 nM | 7.5 nM |  |
| C#Cc1cc(Nc2nccc(Oc3ccc(NC(=O)Nc4cc(C(C)(C)C)nn4-c4ccc(OC)cc4)c4ccccc34)n2)cc(C(=O)NCCOCCOC)c1 [Example 5, 3-((4-((4-(3-(3-(tert-Butyl)-1-(4-methoxyphenyl)-1H-pyrazol-5-yl)ureido)-naphthalen-1-yl)oxy)pyrimidin-2-yl)amino)-5-ethynyl-N-(2-(2-methoxyethoxy)ethyl)-benzamide] | 10.4% | 13000 nM | 8% | 2% | 3% | 1.2 nM | 33 nM | 13 nM | 34 nM | 1.7 nM | 52.1 nM |  |
| [2H]c1c([2H])c(C([2H])([2H])[2H])c([2H])c([2H])c1-n1nc(C(C)(C)C)cc1NC(=O)Nc1ccc(Oc2ccnc(Nc3cc(C#C)cc(C(=O)NCCOCCOCCOC)c3)n2)c2ccccc12 [Example 6, 3-((4-((4-(3-(3-(tert-Butyl)-1-(2,3,5,6-tetradeutero-4-(trideuteromethyl)-phenyl)-1H-pyrazol-5-yl)ureido)naphthalen-1-yl)oxy)pyrimidin-2-yl)amino)-5-ethynyl-N-(2-(2-(2-methoxyethoxy)ethoxy)ethyl)benzamide] | 10.2% |  | 3% | 3% | −1% | 2.3 nM |  | 17 nM | 96 nM | 2.9 nM | 123 nM | 2.4 nM |
| C#Cc1cc(Nc2nccc(Oc3ccc(NC(=O)Nc4cc(C(C)(C)C)nn4-c4ccc(N(C)C)cc4)c4ccccc34)n2)cc(C(=O)NCCOCCOCCOC)c1 [Example 9, 3-((4-((4-(3-(3-(tert-Butyl)-1-(4-(dimethylamino)phenyl)-1H-pyrazol-5-yl)ureido)-naphthalen-1-yl)oxy)pyrimidin-2-yl)amino)-5-ethynyl-N-(2-(2-(2-methoxyethoxy)-ethoxy)ethyl)benzamide] |  | 12100 nM | 1% | 2% | 4% | 2.9 nM | 98 nM | 15 nM | 35 nM | 8.4 nM |  | 3.5 nM |
| COCCOCCOCCNC(=O)c1cc(Nc2cc(Oc3ccc(NC(=O)Nc4cc(C(C)(C)C)nn4-c4ccc(N(C)C)cc4)c4ccccc34)ccn2)cc(OC)c1 [Example 10, 3-((4-((4-(3-(3-(tert-Butyl)-1-(4-(dimethylamino)phenyl)-1H-pyrazol-5-yl)ureido)-naphthalen-1-yl)oxy)pyridin-2-yl)amino)-5-methoxy-N-(2-(2-(2-methoxyethoxy)-ethoxy)ethyl)benzamide] |  | 12000 nM | 4% | 2% | 2% | 3.3 nM | 110 nM | 25 nM | 48 nM | 2.7 nM |  | 4.8 nM |
